Measured values published in paper PMC9181852, “In Vivo and In Vitro Biological Evaluation and Molecular Docking Studies of Compounds Isolated from Micromeria biflora (Buch. Ham. ex D.Don) Benth” (Molecules, 2022).

What was measured:
[1] = target: COX-1 (Homo sapiens, UniProt P23219); assay: In vitro COX-1 inhibition (screening kit)
Description: The in vitro inhibition of cyclooxygenases (COX-1 and COX-2) by the isolated compounds was determined using screening kits.

[2] = Hot plate analgesic test; assay type: in vivo, mice (Balb/c)
Description: (§1) Healthy mice (Balb/c) with weight ranging from 20 to 22 g and ages 9 to 10 weeks were used in this screening model. The grown animals were provided with standard laboratory conditions such as standard food and water ad libitum. The in vivo biological screening test was performed at the Department of Veterinary Medicine, College of Agriculture and Veterinary Medicine, Qassim University Buraydah, Saudi Arabia, as well as Swabi University, KP, Pakistan, according to published procedures.
The analgesic effect of salicylalazine isolated from M. biflora was obtained with help of a hot plate according to the published method. The animals were distributed into different groups according to the previously reported method. A preliminary screening test was performed on the animals using a hot plate (Harvard apparatus) sustained at 55 ± 2 °C. […] Group I (positive control) was administered with the standard drug, while Group II (negative control) was administered with normal saline. The other groups of animals were administered with 2.5, 5, 10, 15, and 20 mg/kg (PO). […] To avoid tissue damage, a cut-off time of 30 s was used for every animal. The latency time was recorded for all groups (n = 6) at consistent intervals (30, 60, 90, and 120 min).

[3] = Carrageenan-induced paw edema; assay type: in vivo, mice
Description: as §1
This model was used to identify the anti-inflammatory potency of salicylalazine purified from M. biflora according to the standard method. The animals were randomly distributed into different groups depending on the treatment. Group I was treated with distilled water (10 mL/kg), which acted as a negative control. […] After 30 min of the intraperitoneal subjection of the mentioned administrations, 1% carrageen (0.05 mL) was […] administrated in the right paw of each animal. The inflammation in every animal was recoded after 1–5 h of carrageenan treatment using a plethysmometer (LE 7500 plan lab S.L). The anti-inflammatory action of salicylalazine was measured using the following formula: Activity %=A−B /A×100 where A is the paw edema of the control group, and B is the paw edema of the screening group.

[4] = Traction muscle relaxation model; assay type: in vivo, mice (Balb/c)
Description: as §1
A traction screening model was adapted to identify the relaxation of muscle for salicylalazine isolated from M. biflora according to the standard method. The traction model was considered by using metallic wires covered with rubber, and then the wires were linked with each other using a stand around 60 cm upstairs of the lab bench. The animals were distributed into different groups, with each group comprising six animals (n = 6). The various groups of animals were administered water, diazepam, and salicylalazine at different doses. After administration, all groups of animals were subjected to traction screening after 30, 60, and 90 min. […] Traction testing was repeatedly performed to calculate the muscle relaxant ability of salicylalazine as per the reported method.

Chain of COX-1 (P23219 24-599): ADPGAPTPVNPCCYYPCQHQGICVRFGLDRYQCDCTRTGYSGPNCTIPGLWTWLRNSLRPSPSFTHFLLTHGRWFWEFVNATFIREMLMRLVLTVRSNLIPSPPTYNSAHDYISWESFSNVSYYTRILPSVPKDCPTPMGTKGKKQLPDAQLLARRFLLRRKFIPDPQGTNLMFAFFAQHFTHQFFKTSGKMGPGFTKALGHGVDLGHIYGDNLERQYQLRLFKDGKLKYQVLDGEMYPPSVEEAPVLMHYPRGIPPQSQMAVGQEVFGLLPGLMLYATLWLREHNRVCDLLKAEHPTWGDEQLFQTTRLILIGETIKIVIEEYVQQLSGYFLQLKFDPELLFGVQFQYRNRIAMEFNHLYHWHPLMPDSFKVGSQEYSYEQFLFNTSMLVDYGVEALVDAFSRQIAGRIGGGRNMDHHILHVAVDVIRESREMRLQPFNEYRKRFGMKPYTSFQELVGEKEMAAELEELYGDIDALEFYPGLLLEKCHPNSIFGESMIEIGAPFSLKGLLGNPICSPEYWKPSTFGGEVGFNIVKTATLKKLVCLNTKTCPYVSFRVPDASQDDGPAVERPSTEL

IC50 [1]: 44.1 ± 1.18 µM
Structure (SMILES): Oc1ccccc1/C=N/N=C/c1ccccc1O [Salicylalazine, salicylalazine]
Latency time on hot plate ([2]; dose 2.5 mg/kg, 30 min): 13.33 ± 0.55 s
Latency time on hot plate ([2]; dose 2.5 mg/kg, 60 min): 14.40 ± 0.83 s
Latency time on hot plate ([2]; dose 2.5 mg/kg, 90 min): 14.33 ± 0.64 s
Latency time on hot plate ([2]; dose 2.5 mg/kg, 120 min): 14.01 ± 0.43 s
Latency time on hot plate ([2]; dose 5 mg/kg, 30 min): 15.12 ± 0.80 s
Latency time on hot plate ([2]; dose 5 mg/kg, 60 min): 18.09 ± 0.69 s
Latency time on hot plate ([2]; dose 5 mg/kg, 90 min): 18.03 ± 0.90 s
Latency time on hot plate ([2]; dose 5 mg/kg, 120 min): 17.97 ± 1.00 s
Latency time on hot plate ([2]; dose 10 mg/kg, 30 min): 18.65 ± 0.95 s
Latency time on hot plate ([2]; dose 10 mg/kg, 60 min): 20.89 ± 0.90 s
Latency time on hot plate ([2]; dose 10 mg/kg, 90 min): 20.77 ± 0.87 s
Latency time on hot plate ([2]; dose 10 mg/kg, 120 min): 19.97 ± 0.80 s
Latency time on hot plate ([2]; dose 15 mg/kg, 30 min): 21.43 ± 0.50 s
Latency time on hot plate ([2]; dose 15 mg/kg, 60 min): 22.89 ± 0.80 s
Latency time on hot plate ([2]; dose 15 mg/kg, 90 min): 22.00 ± 0.98 s
Latency time on hot plate ([2]; dose 15 mg/kg, 120 min): 21.65 ± 0.98 s
Latency time on hot plate ([2]; dose 20 mg/kg, 30 min): 23.00 ± 0.44 s
Latency time on hot plate ([2]; dose 20 mg/kg, 60 min): 23.90 ± 0.97 s
Latency time on hot plate ([2]; dose 20 mg/kg, 90 min): 22.80 ± 1.05 s
Latency time on hot plate ([2]; dose 20 mg/kg, 120 min): 22.79 ± 1.09 s
Attenuation of carrageenan-induced paw edema (maximum) ([3]; 15 mg/kg, after 3 h): 80.98%
Inhibition of carrageenan-induced paw edema (maximum) ([3]; 20 mg/kg, 3 h after carrageenan): 90.22%
Inhibition of carrageenan-induced paw edema ([3]; 20 mg/kg, after 1 h): 45.11%
Traction Test (%) ([4]; dose 2.5 mg/kg, 30 min): 21.23 ± 1.55%
Traction Test (%) ([4]; dose 2.5 mg/kg, 60 min): 27.78 ± 2.10%
Traction Test (%) ([4]; dose 2.5 mg/kg, 90 min): 28.65 ± 1.02%
Traction Test (%) ([4]; dose 5 mg/kg, 30 min): 28.12 ± 1.60%
Traction Test (%) ([4]; dose 5 mg/kg, 60 min): 34.56 ± 2.07%
Traction Test (%) ([4]; dose 5 mg/kg, 90 min): 35.34 ± 2.00%
Traction Test (%) ([4]; dose 10 mg/kg, 30 min): 34.99 ± 1.70%
Traction Test (%) ([4]; dose 10 mg/kg, 60 min): 39.45 ± 2.12%
Traction Test (%) ([4]; dose 10 mg/kg, 90 min): 40.66 ± 1.88%
Traction Test (%) ([4]; dose 15 mg/kg, 30 min): 45.78 ± 1.88%
Traction Test (%) ([4]; dose 15 mg/kg, 60 min): 52.98 ± 2.15%
Traction Test (%) ([4]; dose 15 mg/kg, 90 min): 52.32 ± 2.04%
Traction Test (%) ([4]; dose 20 mg/kg, 30 min): 53.72 ± 1.89%
Traction Test (%) ([4]; dose 20 mg/kg, 60 min): 60.56 ± 2.13%
Traction Test (%) ([4]; dose 20 mg/kg, 90 min): 61.32 ± 2.06%
